# From patent US5516790A, “Synthesis and application of alkyl-substituted dibenzofurans as antitumorigenic agents” (Texas A&M University System Technology Licensing Office, priority 1994, dated 1996)
# Where two headings read alike, the source gives them in different places.
# Columns and labels:
# [1] = system: estrogen receptor; details: female rat; cited from earlier work
# [2] = system: MCF-7 human breast cancer cells; details: TCDD; cited from earlier work
# [3] = system: estrogen receptor (ER); assay type: in vivo, female Sprague/Dawley rats
# Experimental: (§1) TCDD or MCDF was co-administered with a second dose of estradiol and the animals were killed 48-hours later. A second group of animals was similarly treated with corn oil, TCDD, MCDF, or TCDD plus MCDF, all administered in corn oil at 10 ml/kg and terminated 72 hours later.
# (§2) The animals were terminated by cervical dislocation. Livers were perfused with ice-cold TEDG buffer (10 mM Tris-HCl, 1.5 mM EDTA-4Na, 1 mM dithiothreitol, 10% glycerol (v/v), pH 7.4). Following perfusion in situ, livers were removed, weighed, and homogenized in ice-cold TEDG buffer. Uteri were also removed, weighed, and homogenized in ice-cold buffer. The homogenates were then centrifuged at 800×g […] for 15 minutes and the nuclear pellets were stored at -80° C. The supernatants were further centrifuged at 180,000×g for 1.5 hour. The cytosolic supernatant was also stored at -80° C. Estrogen and progesterone receptor levels were determined within 7 days.
# (§3) Estrogen and progesterone receptor levels were determined by the hydroxyapatite assay as described by Clark et al. (J. Steroid, Biochem., 16, 323-328 (1982)). […] Following the incubations, samples were counted and specific binding was calculated by subtraction of nonspecific from total binding. Assuming one steroid molecule binds to one estrogen/progesterone receptor, the number of moles of receptor can be calculated given the specific activity of the radioligand. […] Significant differences were determined by ANOVA.
# [4] = system: progesterone receptor (PR); assay type: in vivo, female Sprague/Dawley rats
# Experimental: as §1, §2, §3
# [5] = system: female rat uterus; assay type: in vivo, female Sprague/Dawley rats
# Experimental: as §1, §2
# [6] = system: progesterone receptor; details: female rat; cited from earlier work
# [7] = system: nuclear ER; details: cited from earlier work
# [8] = system: 34-kDa protein; assay type: cell-based, human; details: for Secreted 34-kDa protein: 2880 min
# Experimental: (§4) On day 0, the media was removed and the cells were rinsed two times with PBS. […] The cells were allowed to incubate for 48 h. […] After 6 h, the media was removed, 10 μl was counted and the remaining media was used for analysis of secreted proteins.
# (§5) The secreted proteins were analyzed by sodium dodecyl sulfate (SDS) polyacrylamide gel electrophoresis; 30 μl of the media was mixed with an equal volume of buffer containing SDS, β-mercaptoethanol, glycerol, Tris and bromophenol blue. The samples were heated for 2 minutes in a boiling water bath and 50 μl of each sample was loaded onto a 1.5 mm thick 12% acrylamide slab gel (containing 0.075% bisacrylamide) with a 3% stacking gel (containing 0.15% bisacrylamide). The gels were run at […] overnight and processed for fluorography (using Enhance: Dupont) and exposed to Kodak X-OMAT film for 10 days at -80° C. The molecular weights of the proteins were estimated by their mobility relative to a set of standard proteins with known molecular weights.
# (§6) The incorporation of ^35 S-methionine into the 34-kDa, 52-kDa and 160-kDa proteins was estimated by scanning the films using a Zeineh Soft Laser Scanning Densitometer (model SLR-20/10) from Biomedical Instruments,Inc. The percentage of the area of the scans due to the particular protein was then compared between the experimental and control samples and the results are presented as means ± SD for at least three samples per treatment group.
# [9] = system: 52-kDa protein; assay type: cell-based, human
# Experimental: as §4, §5, §6
# [10] = system: 160-kDa protein; assay type: cell-based, human; details: for Secreted 160-kDa protein: 2880 min
# Experimental: as §4, §5, §6
# [11] = Table 11, compound alone: TCDD 0.256 or MCDF 100 μmol/kg, or estradiol
# [12] = 17β-estradiol (1 nM) + TCDD 0.0001 nM
# [13] = 17β-estradiol (1 nM) + TCDD 0.001 nM
# [14] = 17β-estradiol (1 nM) + TCDD 0.01 nM
# [15] = 17β-estradiol (1 nM) + TCDD 0.1 nM
structure (smiles),measurement,setting,value
"Clc1cc2c(cc1Cl)Oc1cc(Cl)c(Cl)cc1O2 [TCDD, 2,3,7,8-tetrachloridibenzo-p-dioxin]",constitutive and 17β-estradiol induced uterine and hepatic estrogen receptor levels,[1],decreased
same,17β-estradiol-induced growth of MCF-7 human breast cancer cells,[2],inhibits
same,Hepatic ERc,[3]; TCDD 0.256 μmol/kg,1.7 ± 0.3 fmol/mg protein
same,Hepatic ERn,[3]; TCDD 0.256 μmol/kg,2.3 ± 0.6 fmol/mg protein
same,Uterine ERc,[3]; TCDD 0.256 μmol/kg,92.1 ± 8.2 fmol/mg protein
same,Uterine ERn,[3]; TCDD 0.256 μmol/kg,10.6 ± 0.6 fmol/mg protein
same,Hepatic ERc,[3]; [11],2.2 ± 0.8 fmol/mg protein
same,Hepatic ERn,[3]; [11],2.4 ± 0.4 fmol/mg protein
same,Uterine ERc,[3]; [11],57.8 ± 6.3 fmol/mg protein
same,Uterine ERn,[3]; [11],11.7 ± 0.8 fmol/mg protein
same,Hepatic ERc,"[3]; Table 11, cotreatment with E-2",6.8 ± 1.0 fmol/mg protein
same,Hepatic ERn,"[3]; Table 11, cotreatment with E-2",4.0 ± 0.8 fmol/mg protein
same,Uterine ERc,"[3]; Table 11, cotreatment with E-2",82.8 ± 5.4 fmol/mg protein
same,Uterine ERn,"[3]; Table 11, cotreatment with E-2",17.4 ± 1.0 fmol/mg protein
same,Hepatic PRc,[4]; TCDD 0.256 μmol/kg,38.3 ± 3.9 fmol/mg protein
same,Hepatic PRn,[4]; TCDD 0.256 μmol/kg,5.9 ± 1.1 fmol/mg protein
same,Uterine PRc,[4]; TCDD 0.256 μmol/kg,82 ± 30.2 fmol/mg protein
same,Uterine PRn,[4]; TCDD 0.256 μmol/kg,190 ± 14.2 fmol/mg protein
same,Hepatic PRc,[4]; [11],61.9 ± 7.3 fmol/mg protein
same,Hepatic PRn,[4]; [11],5.9 ± 0.4 fmol/mg protein
same,Uterine PRc,[4]; [11],898.0 ± 49.2 fmol/mg protein
same,Uterine PRn,[4]; [11],180 ± 9.9 fmol/mg protein
same,Hepatic PRc,"[4]; Table 11, cotreatment with E-2",110.3 ± 8.3 fmol/mg protein
same,Hepatic PRn,"[4]; Table 11, cotreatment with E-2",6.8 ± 1.3 fmol/mg protein
same,Uterine PRc,"[4]; Table 11, cotreatment with E-2",811.3 ± 27.1 fmol/mg protein
same,Uterine PRn,"[4]; Table 11, cotreatment with E-2",511 ± 19.3 fmol/mg protein
same,Uterine Wet Weight,"[5]; compound alone: TCDD 0.256 or MCDF 100 μmol/kg, or estradiol",0.086 ± 0.011 % body wt
same,Uterine Wet Weight,[5]; cotreatment with E-2,0.245 ± 0.026 % body wt
same,constitutive and 17β-estradiol induced uterine and hepatic progesterone receptor levels,[6],decreased
same,immunoreactive ER protein,"[7]; concentration-dependent, antibodies to human ER",decrease in immunoreactive ER protein
same,levels of occupied nuclear ER complex,[7]; cotreatment 10 nM TCDD plus [3H]-17β-estradiol,did not affect
same,occupied nuclear ER levels,[7]; pretreatment with TCDD 6 or 12 hours prior to radiolabeled hormone,significant downregulation
same,secretion of the 34-kDa protein,[8]; 10 nM TCDD alone,did not significantly affect
same,Secreted 34-kDa protein,[8]; [12],255 ± 37.8% of the values for control
same,Secreted 34-kDa protein,[8]; [13],151 ± 20.7% of the values for control
same,Secreted 34-kDa protein,[8]; [14],94.2 ± 24.0% of the values for control
same,Secreted 34-kDa protein,[8]; [15],94.9 ± 11.4% of the values for control
same,Secreted 34-kDa protein,"[8]; TCDD alone, 0.0001 nM",86.5 ± 8.56% of the values for control
same,Secreted 34-kDa protein,"[8]; TCDD alone, 0.001 nM",95.2 ± 12.8% of the values for control
same,Secreted 34-kDa protein,"[8]; TCDD alone, 0.01 nM",85.7 ± 11.9% of the values for control
same,Secreted 34-kDa protein,"[8]; TCDD alone, 0.1 nM",94.5 ± 133% of the values for control
same,hormone-induced secretion of the 34-kDa protein,[8]; TCDD plus 17β-estradiol,significantly inhibited
same,secretion of the 52-kDa protein,[9]; 10 nM TCDD alone,did not significantly affect
same,hormone-induced secretion of the 52-kDa protein,[9]; TCDD plus 17β-estradiol,significantly inhibited
same,secretion of the 160-kDa protein,[10]; 10 nM TCDD alone,did not significantly affect
same,Secreted 160-kDa protein,[10]; [12],321 ± 29.0% of the values for control
same,Secreted 160-kDa protein,[10]; [13],167 ± 31.3% of the values for control
same,Secreted 160-kDa protein,[10]; [14],127 ± 21.0% of the values for control
same,Secreted 160-kDa protein,[10]; [15],94.3 ± 5.23% of the values for control
same,Secreted 160-kDa protein,"[10]; TCDD alone, 0.0001 nM",97.4 ± 2.73% of the values for control
same,Secreted 160-kDa protein,"[10]; TCDD alone, 0.001 nM",94.3 ± 3.00% of the values for control
same,Secreted 160-kDa protein,"[10]; TCDD alone, 0.01 nM",90.4 ± 17.2% of the values for control
same,Secreted 160-kDa protein,"[10]; TCDD alone, 0.1 nM",92.8 ± 5.16% of the values for control
same,hormone-induced secretion of the 160-kDa protein,[10]; TCDD plus 17β-estradiol,significantly inhibited
